# “And” between values parts separate entries of the source, which are not always exact repeats. Equal entries are not always repeated.
# System: TNFα secretion
# Assay: TNFα ELISA assay for TNFα suppressing activity in PMA/ionomycin-stimulated human white blood cells (pairwise combination dilution matrix)
# Format: cell-based
# Procedure: Stock solutions at 16 mg/ml of dipyridamole, and 1.6 mg/ml of fludrocortisone acetate (Sigma-Aldrich, St. Louis, Mo.; catalog numbers D9766 and F6127, respectively) were made in dimethylsulfoxide (DMSO). The dipyridamole master plates were made by adding 25 μl of the concentrated stock solution to columns 3, 9, and 15 (rows C through N) of a polypropylene 384-well storage plate that had been pre-filled with 75 μl of anhydrous DMSO. Using a TomTec Quadra Plus liquid handler, the 25 μl of dipyridamole stock solution was serially diluted four times into the adjacent columns (columns 4-7, 10-13, 16-19). […] The fludrocortisone master plates were made by adding 25 μl of the concentrated stock solution to the appropriate wells (row C, columns 3-8; row C, columns 9-14; row C, columns 15-20; row I, columns 3-8; row I, columns 9-14; row I, columns 15-20) of the appropriate master polypropylene 384-well storage plate. These master plates had been pre-filled with 75 μl of anhydrous DMSO. Using the TomTec Quadra Plus liquid handler, the 25 μl was serially diluted four times in the adjacent rows (rows D-G, and J-M). […] Master plates were sealed and stored at −20 C. until ready for use.
# The final dipyridamole/fludrocortisone combination plates were generated by transferring 1 μl from each of the dipyridamole and fludrocortisone master plates to a dilution plate containing 100 μl of media (RPMI; Gibco BRL, #11875-085), 10% Fetal Bovine Serum (Gibco BRL, #25140-097), 2% Penicillin/Streptomycin (Gibco BRL, #15140-122)) using the TomTec Quadra Plus liquid handler. This dilution plate was then mixed and a 10 μl aliquot transferred to the final assay plate, which had been pre-filled with 40 μl/well RPMI media containing the appropriate stimulant to activate TNFα secretion (see below).
# The compound dilution matrix was assayed using a TNFα ELISA method. Briefly, a 100 μl suspension of diluted human white blood cells contained within each well of a polystyrene 384-well plate (NalgeNunc) was stimulated to secrete TNFα by treatment with a final concentration of 10 ng/ml phorbol 12-myristate 13-acetate (Sigma) and […] ionomycin (Sigma). Various concentrations of each test compound were added at the time of stimulation. After 16-18 hours of incubation at 37° C. in a humidified incubator, the plate was centrifuged and the supernatant transferred to a white opaque polystyrene 384 well plate (NalgeNunc, Maxisorb) coated with an anti-TNF antibody (PharMingen, #18631D). After a two-hour incubation, the plate was washed (Tecan PowerWasher 384) with phosphate buffered saline (PBS) containing 0.1% Tween 20 (polyoxyethylene sorbitan monolaurate) and incubated for an additional one hour with another anti-TNF antibody that was biotin labeled (PharMingen, 18642D) and horseradish peroxidase (HRP) coupled to strepavidin (PharMingen, #13047E). After the plate was washed with 0.1% Tween 20/PBS, the HRP substrate (which contains luminol, hydrogen peroxide, and an enhancer such as para-iodophenol) was added to each well and light intensity measured using a LJL Analyst luminometer. Control wells contained a final concentration of 1 μg/ml cyclosporin A (Sigma).
# A compound matrix of dipyridamole and prednisolone were prepared according to the method of Example 1. The initial stock solution of dipyridamole was 16 mg/ml, and prednisolone was 1.6 mg/ml.
# The compound dilution matrix of Example 3, was assayed using the TNFα ELISA method of Example 2.
smiles,measurement,setting,value
"OCCN(CCO)c1nc(N2CCCCC2)c2nc(N(CCO)CCO)nc(N3CCCCC3)c2n1 [Dipyridamole, 2,6-bis(diethanolamino)-4,8-dipiperidinopyrimido(5,4-d)pyrimidine]",% TNFα suppression from P/I-induced white blood cells,"primary screen, fludrocortisone 0.000 μM, dipyridamole 0.031 μM",3.68%
same,% TNFα suppression from P/I-induced white blood cells,"primary screen, fludrocortisone 0.000 μM, dipyridamole 0.124 μM",9.08%
same,% TNFα suppression from P/I-induced white blood cells,"primary screen, fludrocortisone 0.000 μM, dipyridamole 0.495 μM",13.21%
same,% TNFα suppression from P/I-induced white blood cells,"primary screen, fludrocortisone 0.000 μM, dipyridamole 1.982 μM",35.24%
same,% TNFα suppression from P/I-induced white blood cells,"primary screen, fludrocortisone 0.000 μM, dipyridamole 7.927 μM",66.37%
same,% TNFα suppression from P/I-induced white blood cells,"primary screen, prednisolone 0.000 μM, dipyridamole 0.031 μM",11.24%
same,% TNFα suppression from P/I-induced white blood cells,"primary screen, prednisolone 0.000 μM, dipyridamole 0.12 μM",12.63%
same,% TNFα suppression from P/I-induced white blood cells,"primary screen, prednisolone 0.000 μM, dipyridamole 0.50 μM",18.30%
same,% TNFα suppression from P/I-induced white blood cells,"primary screen, prednisolone 0.000 μM, dipyridamole 1.98 μM",27.21%
same,% TNFα suppression from P/I-induced white blood cells,"primary screen, prednisolone 0.000 μM, dipyridamole 7.93 μM",47.51%
same,% TNFα suppression from P/I-induced white blood cells,"secondary screen, fludrocortisone 0.000 μM, dipyridamole 0.031 μM",10.16%
same,% TNFα suppression from P/I-induced white blood cells,"secondary screen, fludrocortisone 0.000 μM, dipyridamole 0.062 μM",9.43%
same,% TNFα suppression from P/I-induced white blood cells,"secondary screen, fludrocortisone 0.000 μM, dipyridamole 0.124 μM",12.13%
same,% TNFα suppression from P/I-induced white blood cells,"secondary screen, fludrocortisone 0.000 μM, dipyridamole 0.248 μM",23.02%
same,% TNFα suppression from P/I-induced white blood cells,"secondary screen, fludrocortisone 0.000 μM, dipyridamole 0.495 μM",33.73%
same,% TNFα suppression from P/I-induced white blood cells,"secondary screen, fludrocortisone 0.000 μM, dipyridamole 0.991 μM",48.20%
same,% TNFα suppression from P/I-induced white blood cells,"secondary screen, fludrocortisone 0.000 μM, dipyridamole 1.982 μM",62.36%
same,% TNFα suppression from P/I-induced white blood cells,"secondary screen, fludrocortisone 0.000 μM, dipyridamole 3.964 μM",66.54%
same,% TNFα suppression from P/I-induced white blood cells,"secondary screen, fludrocortisone 0.000 μM, dipyridamole 7.927 μM",78.11%
"C[C@]12C=CC(=O)C=C1CC[C@@H]1[C@@H]2[C@@H](O)C[C@@]2(C)[C@H]1CC[C@]2(O)C(=O)CO [Prednisolone, 11beta,17alpha,21-trihydroxy-1,4-pregnadiene-3,20-dione]",% TNFα suppression from P/I-induced white blood cells,"primary screen, prednisolone 0.001 μM, dipyridamole 0.00 μM",4.86%
same,% TNFα suppression from P/I-induced white blood cells,"primary screen, prednisolone 0.004 μM, dipyridamole 0.00 μM",19.99%
same,% TNFα suppression from P/I-induced white blood cells,"primary screen, prednisolone 0.016 μM, dipyridamole 0.00 μM",37.84%
same,% TNFα suppression from P/I-induced white blood cells,"primary screen, prednisolone 0.063 μM, dipyridamole 0.00 μM",33.00%
same,% TNFα suppression from P/I-induced white blood cells,"primary screen, prednisolone 0.250 μM, dipyridamole 0.00 μM",38% and 38.25%

# Source: patent publication US7253155B2, “Combinations for the treatment of immunoinflammatory disorders” (CombinatoRx, Inc., priority 2001, dated 2007)
